Experimental data published in the NIST ThermoML archive (doi:10.1021/je4000372).

Key:
[1] = 101 kPa, Liquid; for viscosity: Capillary tube (Ostwald / Ubbelohde) method; for mass density: Pycnometric method
[2] = xn = mol fraction of the nth substance listed; conditions: 101 kPa, Liquid; for viscosity: Capillary tube (Ostwald / Ubbelohde) method; for mass density: Pycnometric method

OCCN(CCO)CCO [triethanolamine]
[1]
Conditions | mass density [kg/m3] | viscosity [mPa·s]
293.15 K | 1124.3 | 917.6
303.15 K | 1118.5 | 404.7
313.15 K | 1112.8 | 203.9
323.15 K | 1107.1 | 108.3
333.15 K | 1101.5 | 64.2

OCCNCCO [diethanolamine] + CCCCOCCOCCO
[2], x2 = 0
Conditions | mass density [kg/m3] | viscosity [mPa·s]
293.15 K | 1096.1 | 890.9
303.15 K | 1089.8 | 382.2
313.15 K | 1083.7 | 187.6
323.15 K | 1077.4 | 99.11
333.15 K | 1070.7 | 58.12

CCCCOCCOCCO [3,6-dioxa-1-decanol]
[1]
Conditions | mass density [kg/m3] | viscosity [mPa·s]
293.15 K | 952.9 | 5.84
303.15 K | 943.5 | 4.23
313.15 K | 935.7 | 3.22
323.15 K | 926.6 | 2.51
333.15 K | 918.5 | 2

NCCO [2-aminoethan-1-ol] + CCCCOCCOCCO
[2], x2 = 0
Conditions | mass density [kg/m3] | viscosity [mPa·s]
293.15 K | 1016.1 | 24.14
303.15 K | 1008.4 | 14.88
313.15 K | 1000.1 | 9.93
323.15 K | 991.9 | 6.89
333.15 K | 983.6 | 4.97

OCCNCCO [diethanolamine]
[1]
Conditions | mass density [kg/m3] | viscosity [mPa·s]
293.15 K | 1096.1 | 890.9
303.15 K | 1089.8 | 382.2
313.15 K | 1083.7 | 187.6
323.15 K | 1077.4 | 99.11
333.15 K | 1070.7 | 58.12

CCCCOCCOCCO [3,6-dioxa-1-decanol] + OCCN(CCO)CCO
[2], x1 = 1
Conditions | mass density [kg/m3] | viscosity [mPa·s]
293.15 K | 952.9 | 5.84
303.15 K | 943.5 | 4.23
313.15 K | 935.7 | 3.22
323.15 K | 926.6 | 2.51
333.15 K | 918.5 | 2

NCCO [2-aminoethan-1-ol]
[1]
Conditions | mass density [kg/m3] | viscosity [mPa·s]
293.15 K | 1016.1 | 24.14
303.15 K | 1008.4 | 14.88
313.15 K | 1000.1 | 9.93
323.15 K | 991.9 | 6.89
333.15 K | 983.6 | 4.97
